# ChEMBL document CHEMBL1629629, “Reassessment of recommended imipenem doses in febrile neutropenic patients with hematological malignancies” (Antimicrob Agents Chemother, 2009)
# Assays:
# Homo sapiens [1] = assay: T>MIC in febrile neutropenic patient with hematological malignancies at 500 mg administered as infusion every 6 hrs; type: functional
# Pseudomonas aeruginosa = assay: Antimicrobial activity against Pseudomonas aeruginosa; type: functional
# Enterococcus = assay: Antimicrobial activity against Enterococcus; type: functional
# [2] = Renal clearance in febrile neutropenic patient with hematological malignancies at 500 mg administered as 30 mins infusion every 6 hrs; type: ADME, organism-based, Kidney; details: human, in vivo, iv, read-out: CL_renal (converted)
# [3] = Cmax in febrile neutropenic patient with hematological malignancies at 500 mg administered as 30 mins infusion every 6 hrs; type: ADME, organism-based; set-up: dose 500 mg; details: human, in vivo, iv
# Homo sapiens [4] = assay: T>MIC in febrile neutropenic patient with hematological malignancies at 500 mg administered as 30 mins infusion every 6 hrs; type: functional
# Homo sapiens [5] = species on record: Homo sapiens; assay: T>MIC in febrile neutropenic patient with hematological malignancies at 6 g/day
# [6] = Elimination half life in febrile neutropenic patient with hematological malignancies at 500 mg administered as 30 mins infusion every 6 hrs; type: ADME, organism-based; details: human, in vivo, iv
# Homo sapiens [7] = assay: T>MIC in febrile neutropenic patient with hematological malignancies at 750 mg administered as 120 mins infusion every 6 hrs; type: functional
# [8] = T>MIC in febrile neutropenic patient with hematological malignancies at 500 mg administered as infusion every 4 hrs; type: functional, Homo sapiens
smiles,measurement,setting,value
C[C@@H](O)[C@H]1C(=O)N2C(C(=O)O)=C(SCCNC=N)C[C@H]12 [IMIPENEM ANHYDROUS],fT>MIC,Homo sapiens [1],18%
same,MIC90,Pseudomonas aeruginosa,2 µg/mL
same,MIC90,Enterococcus,2 µg/mL
same,CL renal,[2],79.8 mL/min
same,Cmax,[3],6600 ng/mL
same,fT>MIC,Homo sapiens [4],53%
same,fT>MIC,Homo sapiens [5],90%
same,half-life,[6],1.43 h
same,fT>MIC,Homo sapiens [7],58%
same,fT>MIC,[8],73%
